Source: paper PMC8400120, “Synthesis of Novel Methyl 7-[(Hetero)arylamino]thieno[2,3-b]pyrazine-6-carboxylates and Antitumor Activity Evaluation: Effects in Human Tumor Cells Growth, Cell Cycle Analysis, Apoptosis and Toxicity in Non-Tumor Cells” (Molecules, 2021)
“Also recorded” adds a separate entry of the source.

What was measured:
[1] = system: gastric adenocarcinoma (AGS); experiment: SRB cell growth inhibition assay, AGS; type: cell-based, human; conditions: for GI50: AGS, SRB assay, 48 h incubation, mean ± SD
Method: (§1) The antitumor potential of the di(hetero)arylamines 2a–2o was evaluated using the sulforhodamine B (SRB) assay to establish some structure–activity relationships. Four human tumor cell lines (acquired from Leibniz-Institut DSMZ) were used: gastric adenocarcinoma (AGS), colorectal adenocarcinoma (CaCo-2), breast adenocarcinoma (MCF7), and non-small-cell lung cancer (NCI-H460), as well as a non-tumor cell line from African green monkey kidney (Vero) to evaluate the toxicity of the compounds. Ellipticine was used as a positive control, and the results are presented in GI50 values (µM) (Table 2).
(§2) Each cell line was prepared in 96-well plates, at the required density (1.0 × 10^4 cells/well) and incubated for 24 h to achieve cell attachment. The solutions of the compounds were applied and incubated for another 48 h. GI50 values (µM) corresponding to the compound concentration that inhibited 50% of cell growth were determined using the sulforhodamine B assay. Two separate tests were carried out for each compound, in duplicate, with the effects expressed as mean values and standard deviation (SD). Ellipticine was used as a positive control.

[2] = system: colorectal adenocarcinoma (CaCo-2); experiment: SRB cell growth inhibition assay, CaCo-2; type: cell-based, human; conditions: for GI50: CaCo-2, SRB assay, 48 h incubation, mean ± SD
Method: as §1, §2

breast carcinoma (MCF7) = experiment: SRB cell growth inhibition assay, MCF7; type: cell-based, human; conditions: MCF-7, SRB assay, 48 h incubation, mean ± SD
Method: as §1, §2

[3] = system: non-small-cell lung carcinoma (NCI-H460); experiment: SRB cell growth inhibition assay, NCI-H460; type: cell-based, human; conditions: 48 h incubation, mean ± SD
Method: as §1, §2

[4] = SRB cell growth inhibition assay, non-tumor Vero cells (toxicity); type: cell-based; conditions: African green monkey, Vero cells (non-tumor kidney cell line), 48 h incubation, mean ± SD
Method: as §1, §2

AGS cells [5] = experiment: Flow cytometric cell cycle analysis (PI staining); type: cell-based, human; conditions: at GI50 concentration, 72 h, vs blank
Method: This assay is based on the measurement of the DNA content in the PI-labeled nuclei. […] Cell cycle analysis was performed using propidium iodide (PI) staining and flow cytometry. This assay is established on the measurement of the DNA content of nuclei labeled with PI. Following this, the cells were staining according to the protocol PI/RNASE Solution (Immunostep, Spain, Salamanca). The harvested cells corresponding to 2 × 10^5 to 1 × 10^6 cells, were centrifuged for 5 min at 300g, and the supernatant was removed. The cells were fixed and added to 200 µL of 70% ethanol and left in the ethanol at 4 °C for 30 min. Following this, the cells were washed once in 2 mL phosphate-buffered saline (PBS) and centrifuged for 5 min at 300g and resuspended in 500 μL of PI solution (PI/RNASE) and incubated in the dark, at room temperature, for 15 min. Cell cycle phase distribution was evaluated using an Accuri C6 flow cytometer (BD Biosciences, San Jose, CA, USA). The DNA content of at least 20,000 cells was counted per sample, and the percentage of cells in different phases (G0/G1, S, and G2/M phases) of the cell cycle was evaluated using BD Accuri C6 software (BD Biosciences, San Jose, CA, USA). Ellipticine was used as a positive control at its GI50 concentration for AGS cell line.

AGS cells [6] = experiment: Flow cytometric apoptosis detection (FITC Annexin V/PI); type: cell-based, human; conditions: at GI50 concentration, 72 h
Method: Apoptosis induction was performed using the Fluorescein Isothiocyanate (FITC) Annexin V Apoptosis Kit (BD Biosciences, San Jose, CA, USA), and measured by flow cytometry for compounds 2b, 2f, and 2g (Figure 3). FITC Annexin V staining was used to determine the percentage of cells within a population that are actively undergoing apoptosis. […] Apoptosis detection was performed using the Fluorescein Isothiocyanate (FITC) Annexin V Apoptosis Kit (BD Biosciences, San Jose, CA, USA) and flow cytometry. FITC Annexin V staining is used to determine the percentage of cells within a population that are actively undergoing apoptosis. The cells were washed twice with PBS and resuspended cells in 1× Binding Buffer (10 mM HEPES/NaOH, pH 7.4, 140 mM NaCl, 2.5 mM CaCl2) at a concentration of 1 × 10^6 cells/mL. Following this, 100 μL of the solution (1 × 10^5 cells) was transferred to a 5 mL culture tube and 5 μL of FITC Annexin V (BD Biosciences, San Jose, CA, USA) and 5 μL of PI (BD Biosciences, San Jose, CA, USA) were added to each tube, and they were incubated in the dark, at room temperature, for 15 min. Finally, 400 μL of 1× Binding Buffer was added to each tube. Next, 30,000 cells were acquired using an Accuri C6 flow cytometer (BD Biosciences, San Jose, CA, USA), and the percentage of cell distribution was evaluated with Accuri C6 software (BD Biosciences, San Jose, CA, USA). Ellipticine was used as a positive control at its GI50 concentration for AGS cell line.

Compound | GI50 ([1]; Homo sapiens, 48 h) | GI50 ([2]; Homo sapiens, Caco-2, 48 h) | melting point | GI50 (breast carcinoma (MCF7); Homo sapiens, MCF7, 48 h) | GI50 ([3]; Homo sapiens, NCI-H460, 48 h) | GI50 at 48 h [4] | Selectivity for CaCo-2 among the cell lines used ([2]; comparison of GI50 values) | AGS cell cycle profile histogram (AGS cells [5]) | Selectivity for AGS among the cell lines used ([1]; comparison of GI50 values) | High number of cells in apoptosis (expected from GI50 values) (AGS cells [6]) | Apoptotic cells (AGS cells [6]; Figure 4) | Dead cells (AGS cells [6]; Figure 4) | Live Cells (AGS cells [6]; Figure 4) | Cell death in apoptosis assay (AGS cells [6]; vs blank) | GI50 [1] | GI50 [2] | GI50 (breast carcinoma (MCF7)) | GI50 [3]
COC(=O)c1sc2nccnc2c1Nc1ccccc1[N+](=O)[O-] [2o, Methyl 7-[(2-Nitrophenyl)amino]thieno[2,3-b]pyrazine-6-carboxylate] | 55 ± 0.3 µM | 31.2 ± 0.2 µM | 225 to 227 °C | 103 ± 3 µM | 43 ± 2 µM | 92 ± 8 µM |  |  |  |  |  |  |  |  |  |  |  | 
COC(=O)c1sc2nccnc2c1Nc1ccccc1 [2a, Methyl 7-(Phenylamino)thieno[2,3-b]pyrazine-6-carboxylate] | 95 ± 9 µM | 38 ± 2 µM | 154 to 156 °C | 97 ± 2 µM | 122 ± 9 µM | 120 ± 6 µM |  |  |  |  |  |  |  |  |  |  |  | 
COC(=O)c1sc2nccnc2c1Nc1ccc(OC)cc1OC [2e, Methyl 7-[(2,4-Dimethoxyphenyl)amino]thieno[2,3-b]pyrazine-6-carboxylate] | 34 ± 2 µM | 56 ± 2 µM | 159 to 161 °C | 140 ± 7 µM | 200 ± 3 µM | 138 ± 8 µM |  |  |  |  |  |  |  |  |  |  |  | 
COC(=O)c1sc2nccnc2c1-n1cccc1 [2m, Methyl 7-(1H-pyrrol-1-yl)thieno[2,3-b]pyrazine-6-carboxylate] | 88.6 ± 0.1 µM | 43.3 ± 0.3 µM | 166 to 168 °C | 128 ± 2 µM | 49 ± 2 µM | 140 ± 12 µM |  |  |  |  |  |  |  |  |  |  |  | 
COC(=O)c1sc2nccnc2c1Nc1cccnc1 [2l, Methyl 7-[(Pyridin-3-yl)amino]thieno[2,3-b]pyrazine-6-carboxylate] | 63.3 ± 0.1 µM | 45 ± 3 µM | 150 to 152 °C | 116 ± 5 µM | 122 ± 11 µM | 110 ± 5 µM |  |  |  |  |  |  |  |  |  |  |  | 
COC(=O)c1sc2nccnc2c1Nc1cccc(F)c1 [2j, Methyl 7-[(3-Fluorophenyl)amino]thieno[2,3-b]pyrazine-6-carboxylate] | 86 ± 6 µM | 142 ± 11 µM |  | 96 ± 6 µM | 69 ± 7 µM | 149 ± 4 µM |  |  |  |  |  |  |  |  |  |  |  | 
COC(=O)c1sc2nccnc2c1Nc1cccc(OC)c1 [2c, Methyl 7-[(3-Methoxyphenyl)amino]thieno[2,3-b]pyrazine-6-carboxylate] | 98 ± 3 µM | 56 ± 1 µM | 171 to 173 °C | 160 ± 6 µM | 96 ± 1 µM | 94 ± 3 µM |  |  |  |  |  |  |  |  |  |  |  | 
COC(=O)c1sc2nccnc2c1Nc1ccc(C#N)cc1 [2n, Methyl 7-[(4-Cyanophenyl)amino]thieno[2,3-b]pyrazine-6-carboxylate] | 39 ± 3 µM | 10.9 ± 0.4 µM | 214 to 216 °C | 103 ± 2 µM | 105 ± 8 µM | 48 ± 4 µM | selective for this cell line; also recorded: selective against CaCo-2 cell line |  |  |  |  |  |  |  |  |  |  | 
COC(=O)c1sc2nccnc2c1Nc1ccccc1F [2i, Methyl 7-[(2-Fluorophenyl)amino]thieno[2,3-b]pyrazine-6-carboxylate] | 48 ± 4 µM | 88.4 ± 0.2 µM |  | 128 ± 5 µM | 76 ± 1 µM | 117 ± 10 µM |  |  |  |  |  |  |  |  |  |  |  | 
COC(=O)c1sc2nccnc2c1Nc1cc(OC)cc(OC)c1 [2g, Methyl 7-[(3,5-Dimethoxyphenyl)amino]thieno[2,3-b]pyrazine-6-carboxylate] | 7.8 ± 0.2 µM | 38 ± 4 µM |  | 182 ± 5 µM | 120 ± 10 µM | 144 ± 10 µM |  | high percentage of cell death and an atypical distribution on cell cycle profile | selective for this cell line | not verified | 19,6% | 60,4% | 19,0% | large amount of cell death |  |  |  | 
COC(=O)c1sc2nccnc2c1Nc1ccc(OC)cc1 [2d, Methyl 7-[(4-Methoxyphenyl)amino]thieno[2,3-b]pyrazine-6-carboxylate] | 59 ± 3 µM | 60 ± 2 µM |  | 136 ± 3 µM | 52.8 ± 0.3 µM | 127 ± 3 µM |  |  |  |  |  |  |  |  |  |  |  | 
Cc1c2ccncc2c(C)c2c1[nH]c1ccccc12 [Ellipticine, reference compound] | ≤ 1 µM | ≤ 1 µM |  | ≤ 1 µM | ≤ 1 µM | 0.6 ± 0.1 µM |  |  |  |  |  |  |  |  | 0.9 ± 0.1 µM | 0.8 ± 0.1 µM | 1.02 ± 0.004 µM | 1.01 ± 0.01 µM
COC(=O)c1sc2nccnc2c1Nc1ccc(F)cc1 [2k, Methyl 7-[(4-Fluorophenyl)amino]thieno[2,3-b]pyrazine-6-carboxylate] | 118 ± 2 µM | 62 ± 4 µM | 171 to 173 °C | 160 ± 7 µM | 84 ± 2 µM | 149 ± 7 µM |  |  |  |  |  |  |  |  |  |  |  | 
COC(=O)c1sc2nccnc2c1Nc1cc(OC)c(OC)c(OC)c1 [2h, Methyl 7-[(3,4,5-Trimethoxyphenyl)amino]thieno[2,3-b]pyrazine-6-carboxylate] | 33 ± 3 µM | 9.2 ± 0.3 µM |  | 105.7 ± 0.5 µM | 77 ± 6 µM | 53 ± 5 µM |  |  |  |  |  |  |  |  |  |  |  | 
